The values that follow come from patent publication EP1210344B1, “HETEROPOLYCYCLIC COMPOUNDS AND THEIR USE AS METABOTROPIC GLUTAMATE RECEPTOR ANTAGONISTS” (NPS PHARMACEUTICALS, INC., priority 1999, dated 2001).

The assay addresses chimeric CaR/mGluR5d receptor (Homo sapiens, UniProt P41594). As to the kind of experiment: CaR/mGluR5d Screening Assay (FLIPR, intracellular calcium). It counts as cell-based. As to conditions: HEK 293 cells expressing the chimeric CaR/mGluR5d receptor, Fluo-3 fluorescence; read-out: IC50 value in relation to CaR/mGluR5d. Background: Calcium assays in cells follow changes in intracellular calcium, usually with a dye or a luminescent sensor.

Chain of chimeric CaR/mGluR5d receptor (P41594 580-876, change not shown): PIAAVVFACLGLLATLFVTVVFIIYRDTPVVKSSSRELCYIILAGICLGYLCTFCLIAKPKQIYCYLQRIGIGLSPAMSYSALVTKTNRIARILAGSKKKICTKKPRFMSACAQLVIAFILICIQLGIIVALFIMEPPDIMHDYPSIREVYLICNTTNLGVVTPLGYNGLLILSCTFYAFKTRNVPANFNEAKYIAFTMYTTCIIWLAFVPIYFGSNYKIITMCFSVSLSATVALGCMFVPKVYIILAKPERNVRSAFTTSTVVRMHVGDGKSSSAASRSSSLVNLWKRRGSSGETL
Chain of chimeric CaR/mGluR5d receptor (P41180 20-610 partner): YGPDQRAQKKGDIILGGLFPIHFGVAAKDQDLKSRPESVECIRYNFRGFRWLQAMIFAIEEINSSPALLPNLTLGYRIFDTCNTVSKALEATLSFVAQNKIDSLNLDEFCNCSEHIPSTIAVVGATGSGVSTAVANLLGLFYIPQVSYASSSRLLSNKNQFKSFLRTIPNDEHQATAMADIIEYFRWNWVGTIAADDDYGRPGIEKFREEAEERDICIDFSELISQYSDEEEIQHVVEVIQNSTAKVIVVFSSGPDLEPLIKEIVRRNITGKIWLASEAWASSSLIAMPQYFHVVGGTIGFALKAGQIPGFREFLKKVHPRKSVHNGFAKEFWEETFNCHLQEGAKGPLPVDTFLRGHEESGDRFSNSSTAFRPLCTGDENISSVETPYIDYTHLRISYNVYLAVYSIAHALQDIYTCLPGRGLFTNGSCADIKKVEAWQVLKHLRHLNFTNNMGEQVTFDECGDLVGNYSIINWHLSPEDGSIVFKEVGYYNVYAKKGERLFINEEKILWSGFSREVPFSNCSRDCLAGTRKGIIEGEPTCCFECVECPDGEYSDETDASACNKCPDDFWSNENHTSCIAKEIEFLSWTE
Procedure: HEK 293 cells expressing the chimeric CaR/mGluR5d receptor (clonal cell line hCaR/hmGluR5d_hek6) are plated 24 hours prior to assay at a density of 100,000 cells per well in Collagen I-coated 96-well black, clear bottom plates (Becton Dickenson) in DMEM supplemented with 10% FBS (Hyclone).
On the day of the assay, tissue culture medium is aspirated from the wells of a plate and 80 µL of Assay Buffer (Assay Buffer is: 20 mM HEPES, 146 mM NaCl, 5 mM KCl, 1 mM MgCl2, 1 mM CaCl2, 1 mg/ml BSA, 1 mg/ml glucose, pH 7.4) supplemented with 6 µM of the Ca^2+-sensitive dye, Fluo-3 AM (Molecular Probes) and 0.025% Pluronic (Molecular Probes) is added to each well. The plate is then incubated in the dark for 1 hour at room temperature to efficiently load the cells with Fluo-3. At the end of the incubation, extracellular Fluo-3 is removed by washing the plate with Assay buffer. Assay Buffer is added back to each well (final volume = 160 µL) prior to beginning the assay.
The plate is loaded into a FLIPR robotic device (Molecular Devices) with the laser setting at 0.8 Watts. […] Relative fluorescence intensity (excitation λ = 488 nm / emission λ = 510 nM) is monitored at relevant time intervals throughout the assay period to measure receptor activation and/or inhibition.

`N#Cc1cccc(-c2nc(-c3ccccn3)co2)c1` [B52, 2-[3-cyanophenyl]-4-[pyridin-2-yl]-1,3-oxazole]: the IC50 amounted to 45 nM.
